Earlier results on 1 compound are cited in PMC9841982 (ACS Medicinal Chemistry Letters, 2022).

The conditions of series [1]: authors' earlier work with TAK-242.
Series [2] deals with murine pancreatic islets. Conditions: free TAK-242, murine islet transplantation.

As for `CCOC(=O)C1=CCCC[C@H]1S(=O)(=O)Nc1ccc(F)cc1Cl` [TAK-242, ethyl (6R)-6-[N-(2-Chloro-4-fluorophenyl)sulfamoyl]cyclohex-1-ene-1-carboxylate], the sulfonamide bond stability entry in series [1] is given as “relatively stable”. Further, the “effect of free drug on islets and transplant outcome” value in series [2] was “reduced sterile inflammation-mediated stress in islets during isolation and promoted successful transplant outcomes”.
